Assay results: paper PMC3119665, “A New Drug Design Targeting the Adenosinergic System for Huntington's Disease” (PLoS ONE, 2011)

Key:
[1] = biological target: T1, A2B adenosine receptor (Homo sapiens, UniProt P29275); experiment: Radioligand binding assay
T1 construct: MDS Pharma Services Taiwan
T1 sequence (P29275 1-332): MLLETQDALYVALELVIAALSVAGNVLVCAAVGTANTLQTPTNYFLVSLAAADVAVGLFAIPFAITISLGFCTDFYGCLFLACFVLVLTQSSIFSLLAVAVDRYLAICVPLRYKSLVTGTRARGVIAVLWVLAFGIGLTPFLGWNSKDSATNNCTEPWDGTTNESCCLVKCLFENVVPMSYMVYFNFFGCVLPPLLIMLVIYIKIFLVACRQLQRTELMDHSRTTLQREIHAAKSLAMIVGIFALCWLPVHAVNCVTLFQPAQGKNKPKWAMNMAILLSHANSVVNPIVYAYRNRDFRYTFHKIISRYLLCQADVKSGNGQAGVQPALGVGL

[2] = biological target: T2, Aldosterone (Rattus norvegicus, UniProt P22199); experiment: Radioligand binding panel (Table S1); conditions: 10 μM T1-11, n 2
T2 construct: purchased MDS Pharma Services Taiwan

[3] = biological target: T3, Bradykinin B2 (Homo sapiens, UniProt P30411); experiment: Radioligand binding panel (Table S1); conditions: 10 μM T1-11, n 2
T3 construct: purchased MDS Pharma Services Taiwan

[4] = biological target: T4, Calcitonin (Homo sapiens, UniProt P30988); experiment: Radioligand binding panel (Table S1); conditions: 10 μM T1-11, n 2
T4 construct: purchased MDS Pharma Services Taiwan

[5] = biological target: T5, Chemokine CCR5 (Homo sapiens, UniProt P51681); experiment: Radioligand binding panel (Table S1); conditions: 10 μM T1-11, n 2
T5 construct: purchased MDS Pharma Services Taiwan

[6] = tested on: Chemokine CXCR1/2 (IL-8, Non-Selective); experiment: Radioligand binding panel (Table S1); set-up: species or system human; conditions: 10 μM T1-11, n 2
[7] = biological target: T6, Cholecystokinin CCK. (CCK8) (Homo sapiens, UniProt P32239); experiment: Radioligand binding panel (Table S1); conditions: 10 μM T1-11, n 2
T6 construct: purchased MDS Pharma Services Taiwan

[8] = biological target: T7, Cholecystokinin CCK. (CCKA) (Homo sapiens, UniProt P32238); experiment: Radioligand binding panel (Table S1); conditions: 10 μM T1-11, n 2
T7 construct: purchased MDS Pharma Services Taiwan

[9] = tested on: Colchicine; experiment: Radioligand binding panel (Table S1); set-up: species or system rat; conditions: 10 μM T1-11, n 2
Experimental: Radoligand binding assays were performed by MDS Pharma Services Taiwan (Taipei, Taiwan) using standard binding protocols. For the binding assay of the A2AR [67], membrane proteins collected from HEK293 cells overexpressing the human A2AR were incubated in reaction buffer [50 mM Tris-HCl (pH 7.4), 10 mM MgCl2, 1 mM EDTA, and 2 U/mL adenosine deaminase] containing ^3H-CGS21680 (50 nM) for 90 min at 25°C. Nonspecific binding was assessed in the presence of 50 µM adenosine- 5′-N-ethylcarboxamide. […] Nonspecific binding was assessed in the presence of 1 µM IB-MECA (Tocris Bioscience, Ellisville, MS, USA).

[10] = biological target: T8, Dopamine D1 (Homo sapiens, UniProt P21728); experiment: Radioligand binding panel (Table S1); conditions: 10 μM T1-11, n 2
T8 construct: purchased MDS Pharma Services Taiwan

[11] = biological target: T9, Dopamine D2S (Homo sapiens, UniProt P14416); experiment: Radioligand binding panel (Table S1); conditions: 10 μM T1-11, n 2
T9 construct: purchased MDS Pharma Services Taiwan

[12] = biological target: T10, Epidermal Growth Factor (EGF) (Homo sapiens, UniProt P00533); experiment: Radioligand binding panel (Table S1); conditions: 10 μM T1-11, n 2
T10 construct: purchased MDS Pharma Services Taiwan

[13] = biological target: Glutamate, NMDA, Glycine (Rattus norvegicus, UniProt P35439); experiment: Radioligand binding panel (Table S1); conditions: 10 μM T1-11, n 2
[14] = tested on: Inositol Trisphosphate IP3; experiment: Radioligand binding panel (Table S1); set-up: species or system rat; conditions: 10 μM T1-11, n 2
[15] = tested on: Insulin; experiment: Radioligand binding panel (Table S1); set-up: species or system rat; conditions: 10 μM T1-11, n 2
[16] = biological target: T11, Interleukin IL-1 (Mus musculus, UniProt P13504); experiment: Radioligand binding panel (Table S1); conditions: 10 μM T1-11, n 2
T11 construct: purchased MDS Pharma Services Taiwan

[17] = biological target: T12, Leukotriene, BLT (LTB4) (Homo sapiens, UniProt Q15722); experiment: Radioligand binding panel (Table S1); conditions: 10 μM T1-11, n 2
T12 construct: purchased MDS Pharma Services Taiwan

[18] = biological target: T13, Motilin (Homo sapiens, UniProt O43193); experiment: Radioligand binding panel (Table S1); conditions: 10 μM T1-11, n 2
T13 construct: purchased MDS Pharma Services Taiwan

[19] = tested on: Muscarinic, Non-Selective, Central; experiment: Radioligand binding panel (Table S1); set-up: species or system rat; conditions: 10 μM T1-11, n 2
[20] = tested on: Nicotinic Acetylcholine; experiment: Radioligand binding panel (Table S1); set-up: species or system human; conditions: 10 μM T1-11, n 2
[21] = tested on: Phosphodiesterase PDE1; experiment: Radioligand binding panel (Table S1); set-up: species or system bovine; conditions: 10 μM T1-11, n 2
[22] = biological target: T14, Prostanoid DP (Homo sapiens, UniProt Q13258); experiment: Radioligand binding panel (Table S1); conditions: 10 μM T1-11, n 2
T14 construct: purchased MDS Pharma Services Taiwan

[23] = tested on: Rolipram; experiment: Radioligand binding panel (Table S1); set-up: species or system rat; conditions: 10 μM T1-11, n 2
[24] = biological target: T15, Serotonin (5-Hydroxytryptamine) 5-HT1B (Rattus norvegicus, UniProt P28564); experiment: Radioligand binding panel (Table S1); conditions: 10 μM T1-11, n 2
T15 construct: purchased MDS Pharma Services Taiwan

[25] = biological target: T16, Serotonin (5-Hydroxytryptamine) 5-HT2C (Homo sapiens, UniProt P28335); experiment: Radioligand binding panel (Table S1); conditions: 10 μM T1-11, n 2
T16 construct: purchased MDS Pharma Services Taiwan

[26] = biological target: T17, Serotonin (5-Hydroxytryptamine) 5-HT4 (Cavia porcellus, UniProt O70528); experiment: Radioligand binding panel (Table S1); set-up: species or system guinea pig; conditions: 10 μM T1-11, n 2
T17 construct: purchased MDS Pharma Services Taiwan

[27] = biological target: T18, Sigma σ1 (Homo sapiens, UniProt Q99720); experiment: Radioligand binding panel (Table S1); conditions: 10 μM T1-11, n 2
T18 construct: purchased MDS Pharma Services Taiwan

[28] = biological target: T19, Vasopressin V1A (Homo sapiens, UniProt P37288); experiment: Radioligand binding panel (Table S1); conditions: 10 μM T1-11, n 2
T19 construct: purchased MDS Pharma Services Taiwan

[29] = biological target: T20, adenosine transporter (ENT1) (Rattus norvegicus, UniProt O54698); experiment: Adenosine uptake by PC12 cells; format: cell-based
T20 construct: endogenous in cells; host or cells: PC12
Experimental: For adenosine uptake of PC12, cells were seeded approximately 16 h before each uptake assay at ∼2×10^5 cells per well in 24-well plates coated with poly-L-lysine. To perform adenosine uptake assays, cells were washed with Krebs Ringer-Henseleit buffer [125 mM NaCl, 4.8 mM KCl, 1.3 mM CaCl2, 1.2 mM MgSO4, 1.2 mM KH2PO4, 5.6 mM glucose, 10 µM pargyline, and 10 mM HEPES (pH 7.2)] and incubated in the same buffer for 10 min at 37°C in the presence or absence of the indicated reagent(s). Adenosine uptake was initiated by adding [^3H]adenosine at the indicated concentration (0.5 µCi/mmol) at 37°C. At the end of the incubation, cells were placed on ice, washed twice with ice-cold Krebs Ringer-Henseleit buffer to remove free [^3H]adenosine, lysed with 1% Triton X-100, and added to scintillation vials to count the radioactivity. Non-specific uptake was determined as the uptake performed in the presence of 100 µM adenosine, and was subtracted from the total adenosine uptake.

[30] = n.s. = not significant, no significant binding at 10 µM

T20 sequence (O54698 whole entry): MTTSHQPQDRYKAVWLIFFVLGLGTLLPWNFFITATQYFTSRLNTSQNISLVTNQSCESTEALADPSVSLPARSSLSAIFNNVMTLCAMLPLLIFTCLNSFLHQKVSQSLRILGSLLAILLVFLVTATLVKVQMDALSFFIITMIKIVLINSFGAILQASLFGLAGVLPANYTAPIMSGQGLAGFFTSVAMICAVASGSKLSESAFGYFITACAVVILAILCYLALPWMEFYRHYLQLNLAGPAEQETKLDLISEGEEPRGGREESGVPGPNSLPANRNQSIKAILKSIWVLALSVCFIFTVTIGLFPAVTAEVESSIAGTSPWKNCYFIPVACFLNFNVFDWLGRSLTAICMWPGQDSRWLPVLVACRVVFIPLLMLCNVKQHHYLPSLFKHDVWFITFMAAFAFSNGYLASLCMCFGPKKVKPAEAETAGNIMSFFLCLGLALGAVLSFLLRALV
T8 sequence (P21728 whole entry): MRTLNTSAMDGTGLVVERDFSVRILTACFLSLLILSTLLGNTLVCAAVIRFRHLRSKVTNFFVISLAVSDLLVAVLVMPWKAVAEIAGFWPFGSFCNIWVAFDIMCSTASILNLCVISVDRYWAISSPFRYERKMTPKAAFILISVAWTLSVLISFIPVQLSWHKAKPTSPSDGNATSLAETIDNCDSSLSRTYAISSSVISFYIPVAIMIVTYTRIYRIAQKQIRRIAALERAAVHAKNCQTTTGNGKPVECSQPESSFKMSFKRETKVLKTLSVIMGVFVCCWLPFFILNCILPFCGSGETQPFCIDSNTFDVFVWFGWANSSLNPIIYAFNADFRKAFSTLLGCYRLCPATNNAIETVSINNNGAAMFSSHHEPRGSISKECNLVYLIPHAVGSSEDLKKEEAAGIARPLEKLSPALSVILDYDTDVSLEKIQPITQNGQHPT
T16 sequence (P28335 33-458): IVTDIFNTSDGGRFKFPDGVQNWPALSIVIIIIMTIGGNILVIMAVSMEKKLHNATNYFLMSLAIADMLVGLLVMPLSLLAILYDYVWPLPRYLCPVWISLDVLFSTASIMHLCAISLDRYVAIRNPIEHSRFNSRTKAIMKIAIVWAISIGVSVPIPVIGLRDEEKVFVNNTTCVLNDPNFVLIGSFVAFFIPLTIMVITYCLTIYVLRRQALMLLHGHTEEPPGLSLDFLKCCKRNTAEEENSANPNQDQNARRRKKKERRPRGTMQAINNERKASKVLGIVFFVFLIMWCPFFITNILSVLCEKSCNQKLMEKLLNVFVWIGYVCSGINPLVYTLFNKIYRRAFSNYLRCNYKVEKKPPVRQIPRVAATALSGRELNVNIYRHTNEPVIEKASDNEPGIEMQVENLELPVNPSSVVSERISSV
T10 sequence (P00533 25-1210): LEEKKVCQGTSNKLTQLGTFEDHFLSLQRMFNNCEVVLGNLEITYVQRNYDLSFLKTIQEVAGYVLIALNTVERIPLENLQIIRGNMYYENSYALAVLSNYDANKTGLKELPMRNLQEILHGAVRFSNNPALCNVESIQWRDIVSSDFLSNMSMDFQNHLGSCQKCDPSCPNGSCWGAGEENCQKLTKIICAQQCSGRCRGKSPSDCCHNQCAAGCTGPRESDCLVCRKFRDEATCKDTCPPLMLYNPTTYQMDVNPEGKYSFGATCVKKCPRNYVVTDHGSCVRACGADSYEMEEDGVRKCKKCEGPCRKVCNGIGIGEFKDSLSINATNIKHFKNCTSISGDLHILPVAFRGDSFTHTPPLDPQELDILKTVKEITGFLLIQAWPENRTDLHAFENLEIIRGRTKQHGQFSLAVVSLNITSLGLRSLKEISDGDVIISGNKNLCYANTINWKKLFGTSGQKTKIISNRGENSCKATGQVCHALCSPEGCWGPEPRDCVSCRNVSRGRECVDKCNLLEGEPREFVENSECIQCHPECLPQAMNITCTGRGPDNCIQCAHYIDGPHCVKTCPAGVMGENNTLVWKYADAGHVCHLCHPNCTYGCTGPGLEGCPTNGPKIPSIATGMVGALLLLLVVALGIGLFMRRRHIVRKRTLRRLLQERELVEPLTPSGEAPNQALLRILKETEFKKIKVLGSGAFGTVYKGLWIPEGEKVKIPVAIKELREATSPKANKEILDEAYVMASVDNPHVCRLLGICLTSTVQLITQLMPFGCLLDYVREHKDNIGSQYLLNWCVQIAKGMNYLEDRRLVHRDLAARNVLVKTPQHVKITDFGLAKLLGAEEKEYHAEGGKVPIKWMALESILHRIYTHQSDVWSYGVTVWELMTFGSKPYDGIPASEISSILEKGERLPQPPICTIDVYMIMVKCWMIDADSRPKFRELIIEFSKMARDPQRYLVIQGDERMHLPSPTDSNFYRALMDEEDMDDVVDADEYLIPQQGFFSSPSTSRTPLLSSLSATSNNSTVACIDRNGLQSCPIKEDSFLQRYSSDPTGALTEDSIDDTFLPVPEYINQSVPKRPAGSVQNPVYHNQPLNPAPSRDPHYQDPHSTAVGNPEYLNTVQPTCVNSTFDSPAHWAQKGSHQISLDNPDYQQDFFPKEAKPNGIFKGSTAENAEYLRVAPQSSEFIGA
T3 sequence (P30411 whole entry): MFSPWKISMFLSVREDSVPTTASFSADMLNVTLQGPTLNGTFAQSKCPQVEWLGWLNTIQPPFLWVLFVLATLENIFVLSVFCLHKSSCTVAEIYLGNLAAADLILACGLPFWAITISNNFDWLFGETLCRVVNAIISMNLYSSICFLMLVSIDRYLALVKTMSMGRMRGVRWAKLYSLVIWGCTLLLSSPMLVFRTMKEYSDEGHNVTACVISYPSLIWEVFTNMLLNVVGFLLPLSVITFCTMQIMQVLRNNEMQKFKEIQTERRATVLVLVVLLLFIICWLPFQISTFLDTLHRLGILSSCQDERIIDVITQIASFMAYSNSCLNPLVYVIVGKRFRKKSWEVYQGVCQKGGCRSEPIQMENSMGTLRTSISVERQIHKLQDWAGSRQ
T4 sequence (P30988 25-474): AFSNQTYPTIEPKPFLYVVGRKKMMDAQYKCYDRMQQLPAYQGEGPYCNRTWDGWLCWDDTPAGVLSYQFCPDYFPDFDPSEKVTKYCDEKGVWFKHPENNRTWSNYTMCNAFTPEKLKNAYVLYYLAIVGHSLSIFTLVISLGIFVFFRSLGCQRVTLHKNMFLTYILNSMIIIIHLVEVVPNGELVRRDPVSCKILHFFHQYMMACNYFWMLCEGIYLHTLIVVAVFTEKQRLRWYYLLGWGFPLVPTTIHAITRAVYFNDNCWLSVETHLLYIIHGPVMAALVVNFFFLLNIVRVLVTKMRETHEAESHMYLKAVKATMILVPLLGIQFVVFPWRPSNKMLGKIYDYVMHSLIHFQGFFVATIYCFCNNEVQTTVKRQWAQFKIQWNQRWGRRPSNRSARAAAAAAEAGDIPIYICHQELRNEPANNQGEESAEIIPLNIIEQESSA
T17 sequence (O70528 whole entry): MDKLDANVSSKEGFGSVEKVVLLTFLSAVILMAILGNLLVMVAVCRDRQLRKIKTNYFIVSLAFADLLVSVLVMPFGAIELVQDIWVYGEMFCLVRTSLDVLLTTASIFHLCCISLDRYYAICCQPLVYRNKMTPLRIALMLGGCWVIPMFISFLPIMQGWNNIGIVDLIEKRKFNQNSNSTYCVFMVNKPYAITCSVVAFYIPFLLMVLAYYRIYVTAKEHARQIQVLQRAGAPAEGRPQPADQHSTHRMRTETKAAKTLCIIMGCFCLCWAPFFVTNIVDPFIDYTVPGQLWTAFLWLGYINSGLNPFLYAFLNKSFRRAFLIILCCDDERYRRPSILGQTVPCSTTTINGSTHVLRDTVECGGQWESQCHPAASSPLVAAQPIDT
T5 sequence (P51681 whole entry): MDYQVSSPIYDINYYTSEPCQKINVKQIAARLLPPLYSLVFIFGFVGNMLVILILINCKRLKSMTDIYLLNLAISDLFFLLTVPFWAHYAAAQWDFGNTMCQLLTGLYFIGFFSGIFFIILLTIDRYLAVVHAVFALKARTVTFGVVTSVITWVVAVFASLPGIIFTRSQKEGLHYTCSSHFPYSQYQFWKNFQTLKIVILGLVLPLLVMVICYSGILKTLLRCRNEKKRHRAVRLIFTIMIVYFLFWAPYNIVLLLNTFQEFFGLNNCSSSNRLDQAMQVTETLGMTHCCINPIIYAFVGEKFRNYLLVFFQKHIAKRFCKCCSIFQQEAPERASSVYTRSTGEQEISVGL
T9 sequence (P14416 1-414 isoform P14416-2): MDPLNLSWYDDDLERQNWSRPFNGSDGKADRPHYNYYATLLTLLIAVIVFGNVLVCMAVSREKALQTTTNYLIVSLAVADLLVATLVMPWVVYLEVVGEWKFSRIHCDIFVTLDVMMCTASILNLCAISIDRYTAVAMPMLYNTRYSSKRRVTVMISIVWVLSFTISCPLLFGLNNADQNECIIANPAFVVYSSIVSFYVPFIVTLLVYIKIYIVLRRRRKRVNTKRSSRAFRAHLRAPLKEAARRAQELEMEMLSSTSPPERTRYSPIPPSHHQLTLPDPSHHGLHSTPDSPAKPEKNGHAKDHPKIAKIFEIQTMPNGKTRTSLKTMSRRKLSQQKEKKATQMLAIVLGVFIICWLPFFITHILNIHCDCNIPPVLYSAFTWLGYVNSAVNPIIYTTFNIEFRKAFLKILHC
T7 sequence (P32238 whole entry): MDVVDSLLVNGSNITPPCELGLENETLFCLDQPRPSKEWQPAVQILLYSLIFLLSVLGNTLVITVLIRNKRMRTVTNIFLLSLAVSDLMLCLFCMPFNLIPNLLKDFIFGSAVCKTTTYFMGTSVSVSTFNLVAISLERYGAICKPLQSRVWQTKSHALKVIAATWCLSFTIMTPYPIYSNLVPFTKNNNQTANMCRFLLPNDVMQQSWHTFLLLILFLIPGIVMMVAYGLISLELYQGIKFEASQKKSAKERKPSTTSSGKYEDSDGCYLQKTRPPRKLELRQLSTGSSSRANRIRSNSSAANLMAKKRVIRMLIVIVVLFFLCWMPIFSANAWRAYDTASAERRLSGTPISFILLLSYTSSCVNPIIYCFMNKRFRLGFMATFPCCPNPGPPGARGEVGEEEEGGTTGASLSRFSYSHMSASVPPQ

For `OC[C@H]1O[C@@H](n2cnc3c(NCc4ccc(O)cc4)ncnc32)[C@H](O)[C@@H]1O` [T1-11, N ^6-(4-hydroxybenzyl)adenine riboside], which inhibition at 10 µM ([1]; 10 μM T1-11, n 2) is on record?
The inhibition at 10 µM was 0%.

What about the IC50 [1, 30] of the same compound?
Its IC50 is “n.s”.

What about the Ki [1, 30] of the same compound?
The Ki was “n.s”.

And the inhibition at 10 µM [2]?
Its inhibition at 10 µM is 2%.

And the inhibition at 10 µM [3]?
Its inhibition at 10 µM is -9%.

What about the inhibition at 10 µM [4] of the same compound?
Its inhibition at 10 µM is 15%.

And the inhibition at 10 µM [5]?
The inhibition at 10 µM was -8%.

And the “% Inhibition” value [6]?
The value was 10%.

And the inhibition at 10 µM [7]?
The inhibition at 10 µM was -5%.

And the inhibition at 10 µM [8]?
The inhibition at 10 µM was -3%.

What about the “% Inhibition” value [9] of the same compound?
Its value is -2%.

And the inhibition at 10 µM [10]?
Its inhibition at 10 µM is -13%.

And the inhibition at 10 µM [11]?
The inhibition at 10 µM was 10%.

What about the inhibition at 10 µM [12] of the same compound?
Its inhibition at 10 µM is -5%.

And the inhibition at 10 µM [13]?
Its inhibition at 10 µM is 7%.

What about the “% Inhibition” value [14] of the same compound?
The value was 3%.

And the “% Inhibition” value [15]?
Its value is 4%.

And the inhibition at 10 µM [16]?
The inhibition at 10 µM was 4%.

And the inhibition at 10 µM [17]?
Its inhibition at 10 µM is -6%.

What about the inhibition at 10 µM [18] of the same compound?
The inhibition at 10 µM was -2%.

And the “% Inhibition” value [19]?
Its value is 12%.

What about the “% Inhibition” value [20] of the same compound?
The value was 6%.

What about the “% Inhibition” value [21] of the same compound?
Its value is 26%.

And the inhibition at 10 µM [22]?
Its inhibition at 10 µM is 17%.

What about the “% Inhibition” value [23] of the same compound?
Its value is -6%.

What about the inhibition at 10 µM [24] of the same compound?
The inhibition at 10 µM was 3%.

And the inhibition at 10 µM [25]?
The inhibition at 10 µM was 27%.

And the inhibition at 10 µM [26]?
The inhibition at 10 µM was 1%.

What about the inhibition at 10 µM [27] of the same compound?
The inhibition at 10 µM was 7%.

And the inhibition at 10 µM [28]?
Its inhibition at 10 µM is 0%.

What about the Function ([29]; Adenosine transporter (ENT1), suppressed the uptake of adenosine) of the same compound?
The Function was “inhibitor”.

And the “Inhibition of adenosine uptake” value ([29]; PC12 cells)?
Its value is “inhibited adenosine uptake by PC12 cells in a dose-dependent manner”.
